Data reported in patent US20250051319A1 (AUGUSTINE THERAPEUTICS, priority 2021, published 2025).

Experiments:
[1] = target: catalytic domain 2 (CD2) of HDAC6 (Homo sapiens (Human), UniProt Q9UBN7); experiment: Cellular target engagement assay - NanoBRET; type: cell-based; settings: NanoLuc-HDAC6(CD2) in HEK293T cells, 2 hours, read-out: IC50 (HDAC6(CD2) interaction)
[2] = target: T1, human full-length recombinant HDAC6 (Homo sapiens (Human), UniProt Q9UBN7); experiment: HDAC6 enzymatic activity assay (Reaction Biology Corporation, RHKKAc fluorogenic peptide); type: biochemical; settings: Reaction Biology Corporation protocol, RHKKAc fluorogenic peptide 10 μM; read-out: HDAC6 biochem
T1 sequence (Q9UBN7 whole entry): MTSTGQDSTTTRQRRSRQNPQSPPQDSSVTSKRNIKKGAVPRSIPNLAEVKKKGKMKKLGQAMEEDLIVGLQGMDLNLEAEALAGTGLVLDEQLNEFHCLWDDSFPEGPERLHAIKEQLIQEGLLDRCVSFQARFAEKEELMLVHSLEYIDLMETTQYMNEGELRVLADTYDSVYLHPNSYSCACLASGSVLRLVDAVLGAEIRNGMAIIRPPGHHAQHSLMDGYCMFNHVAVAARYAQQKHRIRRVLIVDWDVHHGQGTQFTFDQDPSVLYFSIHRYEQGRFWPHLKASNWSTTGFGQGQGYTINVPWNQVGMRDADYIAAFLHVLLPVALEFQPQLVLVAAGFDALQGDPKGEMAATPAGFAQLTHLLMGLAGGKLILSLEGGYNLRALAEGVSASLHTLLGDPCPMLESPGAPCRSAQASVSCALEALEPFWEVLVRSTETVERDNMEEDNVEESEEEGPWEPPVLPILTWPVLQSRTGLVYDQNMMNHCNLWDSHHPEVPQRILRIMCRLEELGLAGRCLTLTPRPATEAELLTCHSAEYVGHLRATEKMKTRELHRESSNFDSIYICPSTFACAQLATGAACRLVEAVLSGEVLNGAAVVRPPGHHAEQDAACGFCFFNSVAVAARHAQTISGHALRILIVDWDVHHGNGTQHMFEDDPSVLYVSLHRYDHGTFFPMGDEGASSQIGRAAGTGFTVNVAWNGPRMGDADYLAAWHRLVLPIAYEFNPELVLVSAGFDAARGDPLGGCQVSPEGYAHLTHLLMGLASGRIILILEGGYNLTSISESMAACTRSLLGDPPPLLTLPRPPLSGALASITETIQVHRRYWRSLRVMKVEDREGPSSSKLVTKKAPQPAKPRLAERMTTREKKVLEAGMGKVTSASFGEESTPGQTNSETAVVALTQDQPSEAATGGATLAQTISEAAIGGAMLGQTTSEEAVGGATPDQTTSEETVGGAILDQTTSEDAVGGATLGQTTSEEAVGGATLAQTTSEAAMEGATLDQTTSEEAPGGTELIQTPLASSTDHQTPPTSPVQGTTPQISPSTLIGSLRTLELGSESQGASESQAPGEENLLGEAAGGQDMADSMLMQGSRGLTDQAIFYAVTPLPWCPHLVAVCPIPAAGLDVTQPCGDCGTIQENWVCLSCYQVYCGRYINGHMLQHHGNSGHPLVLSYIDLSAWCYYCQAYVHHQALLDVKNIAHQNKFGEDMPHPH
Experimental: (§1) Dose response testing of HDAC6 and HDAC 1 were run at Reaction Biology Corporation (RBC). Inhibition of HDAC enzymes was performed using N-terminal GST tagged human full-length recombinant HDAC6 (H88-30G, SignalChem) and C-terminal FLAG His tag human full-length recombinant HDAC1 produced in insect cells (KDA-21-365, RBC). Enzyme reactions were run in 50 mM Tris-HCl, pH8.0, 137 mM NaCl, 2.7 mM KCl, and 1 mM MgCl2 with 1 mg/ml BSA, 1% DMSO freshly added. 2× enzyme was delivered in the wells of the reaction plate except for the “no enzyme” control wells. In the latter, buffer was added. Compounds in 100% DMSO were delved into the enzyme mixture by acoustic technology (Echo550). Plates are spun down and compounds were incubation with the enzyme for 10 min at room temperature. 2× Fluorogenic peptide from p53 residues 379-382 (RHKKAc, 10 μM final concentration) was added in all wells to initiate the reaction, followed by 1 h incubation at 30° C. Developer containing Trichostatin A was added to stop the reaction and generate fluorescent color. A kinetic measurement was carried out for 20 min with 5 min interval on the Envision plate reader (Perkin Elmer, Ex/Em=360/460). End point reading i.e., plateau of the development reaction was used for analysis. Data was reported by RBC as percentage enzyme activity. Percentage inhibition was calculated by subtracting percentage enzyme activity from 100. IC50 values were calculated using GraphPad Prism 9 based on the log(inhibitor) vs. response—Variable slope (four parameters) equation.

[3] = target: T2, human full-length recombinant HDAC1 (Homo sapiens (Human), UniProt Q13547); experiment: HDAC1 enzymatic activity assay (Reaction Biology Corporation, RHKKAc fluorogenic peptide); type: biochemical; settings: Reaction Biology Corporation protocol, RHKKAc fluorogenic peptide 10 μM; read-out: HDAC1 biochem
T2 sequence (Q13547 whole entry): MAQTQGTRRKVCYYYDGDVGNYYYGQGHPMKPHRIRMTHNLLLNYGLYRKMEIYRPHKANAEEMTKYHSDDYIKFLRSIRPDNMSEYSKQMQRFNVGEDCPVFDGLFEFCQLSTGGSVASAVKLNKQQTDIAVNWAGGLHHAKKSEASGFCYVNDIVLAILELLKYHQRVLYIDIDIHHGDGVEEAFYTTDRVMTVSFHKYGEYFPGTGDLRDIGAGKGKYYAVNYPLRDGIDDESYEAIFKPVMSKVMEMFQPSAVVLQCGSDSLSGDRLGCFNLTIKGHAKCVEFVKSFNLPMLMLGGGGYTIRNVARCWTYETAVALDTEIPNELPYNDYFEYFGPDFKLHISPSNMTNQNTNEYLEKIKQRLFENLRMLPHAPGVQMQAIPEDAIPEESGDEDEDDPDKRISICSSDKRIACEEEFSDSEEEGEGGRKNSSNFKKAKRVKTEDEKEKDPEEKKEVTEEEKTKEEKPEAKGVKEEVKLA
Experimental: as §1

[4] = target: T1, human full-length recombinant HDAC6; experiment: HDAC6 enzymatic activity assay (alternative protocol, Ac-Gly-Ala-Lys(Ac)-AMC); type: biochemical; settings: 5 nM enzyme, read-out: HDAC6 biochem
In short: (§2)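 Sf9-expressed enzymes (4 nM HDAC1, 5 nM HDAC6) preincubated 10 min at RT with compound, then 60 min with Ac-Gly-Ala-Lys(Ac)-AMC ([…] HDAC1, 40 µM HDAC6); pH 8.0 Tris buffers, HDAC6 buffer with EDTA and DTT. Trypsin/SAHA developer stop, fluorescence 360/450 nm after 15 min; normalized to DMSO (100%) and 10 μM SAHA (0%).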

[5] = target: T2, human full-length recombinant HDAC1; experiment: HDAC1 enzymatic activity assay (alternative protocol, Ac-Gly-Ala-Lys(Ac)-AMC); type: biochemical; settings: 4 nM enzyme, read-out: HDAC1 biochem
In short: as §2

Sequence of catalytic domain 2 (CD2) of HDAC6 (Q9UBN7 482-800): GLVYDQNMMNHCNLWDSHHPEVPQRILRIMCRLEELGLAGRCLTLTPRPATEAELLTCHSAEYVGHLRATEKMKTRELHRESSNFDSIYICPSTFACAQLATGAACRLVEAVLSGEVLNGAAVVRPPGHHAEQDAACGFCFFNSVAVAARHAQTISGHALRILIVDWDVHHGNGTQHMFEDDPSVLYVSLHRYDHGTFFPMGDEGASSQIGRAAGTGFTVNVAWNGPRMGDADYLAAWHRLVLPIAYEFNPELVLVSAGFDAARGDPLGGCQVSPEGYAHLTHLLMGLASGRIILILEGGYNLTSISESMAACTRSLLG

| Compound | IC50 [1] | IC50 [2] | IC50 [3] | IC50 [4] | IC50 [5] |
| --- | --- | --- | --- | --- | --- |
| Cn1ncc2c(SCC(=O)c3ccc(CNC(=O)C4CC4)s3)ncnc21 [Example 31, N-((5-(2-((1-methyl-1H-pyrazolo[3,4-d]pyrimidin-4-yl)thio)acetyl)thiophen-2-yl)methyl)cyclopropanecarboxamide] | 1000 to 10000 nM | ≤ 100 nM | > 10000 nM | ≤ 100 nM | > 10000 nM |
| O=C(CSc1nc(C(F)(F)F)nc2nn(C3CC3)cc12)c1ccc(CNC(=O)C(F)(F)C(F)(F)F)s1 [Example 44, N-((5-(2-((2-cyclopropyl-6-(trifluoromethyl)-2H-pyrazolo[3,4-d]pyrimidin-4-yl)thio)acetyl)thiophen-2-yl)methyl)-2,2,3,3,3-pentafluoropropanamide] | 100 to 500 nM | ≤ 100 nM | > 10000 nM | – | – |
| COc1ccc2nc(C)nc(SCC(=O)c3ccc(CNC(=O)CO)s3)c2c1 [Example 60, 2-Hydroxy-N-((5-(2-((6-methoxy-2-methylquinazolin-4-yl)thio)acetyl)thiophen-2-yl)methyl)acetamide] | ≤ 100 nM | ≤ 100 nM | > 10000 nM | – | – |
| O=C(CSc1nc(C(F)(F)F)nc2ncccc12)c1ccc(CN2CCOCC2=O)s1 [Example 138, 4-((5-(2-((2-(trifluoromethyl)pyrido[2,3-d]pyrimidin-4-yl)thio)acetyl)thiophen-2-yl)methyl)morpholin-3-one] | ≤ 100 nM | ≤ 100 nM | > 10000 nM | – | – |
